Data on 22 compounds can be found in patent US12679824B2 (Hoffmann-La Roche Inc., priority 2020, dated 2026).

One experiment relates to Acinetobacter baumannii ATCC17961. The experiment in a line: 90% Growth Inhibitory Concentration (IC90) determination, antimicrobial susceptibility testing. The format is cell-based. Particulars: Acinetobacter baumannii, ATCC17961, 16 h, Acinetobacter baumannii ATCC17961; Iso-Sensitest broth; growth by optical density at 600 nm over 16h; concentration inhibiting 90% of the growth; read-out: ATCC 17961 IC90. Summed up:
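Broth microdilution in Iso-Sensitest medium, compounds twofold diluted (e.g. 50–0.097 μM final), inoculum ~5×10^(5) CFU/ml, 35±2° C. OD600 was read every 20 min over 16 h. IC90 was derived from growth inhibition during logarithmic growth.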
Broadly, the IC90 is the concentration at which the effect reaches the 90% level. In the case of `Cn1c(-c2cn(-c3ccc(N)cn3)nc2C(F)(F)F)cnc1C(=O)Nc1ccc(C(=O)NCc2cc[nH]n2)c(Cl)c1` [Example I2, 5-[1-(5-amino-2-pyridyl)-3-(trifluoromethyl)pyrazol-4-yl]-N-[3-chloro-4-(1H-pyrazol-3-ylmethylcarbamoyl)phenyl]-1-methyl-imidazole-2-carboxamide], the IC90 was found to be 0.4 µM.
Still for that read-out and setting: next, `Cn1c(-c2cn(-c3ccc(N)nc3)nc2C(F)(F)F)cnc1C(=O)Nc1ccc(C(=O)N2CCN(C(=O)C3CCNCC3)CC2)c(Cl)c1` [Example Z10, 5-[1-(6-amino-3-pyridyl)-3-(trifluoromethyl)pyrazol-4-yl]-N-[3-chloro-4-(4-isonipecotoylpiperazine-1-carbonyl)phenyl]-1-methyl-imidazole-2-carboxamide]: 0.33 µM.
With `Cn1c(-c2cn(-c3ncc(N)cn3)nc2C(F)(F)F)cnc1C(=O)Nc1ccc(C(=O)N2CCN(C(=O)C3CCNCC3)CC2)c(Cl)c1` [Example A5, 5-[1-(5-aminopyrimidin-2-yl)-3-(trifluoromethyl)pyrazol-4-yl]-N-[3-chloro-4-[4-(piperidine-4-carbonyl)piperazine-1-carbonyl]phenyl]-1-methyl-imidazole-2-carboxamide], the IC90 came out at 1 µM.
Still for that read-out and setting: next, `Cn1c(-c2cn(-c3ccc(N)cn3)nc2C(F)(F)F)cnc1C(=O)Nc1ccc(C(=O)NC2CC(CN)(CCl)C2)c(Cl)c1` (stereo not shown) [Example Z15, N-[4-[[3-(aminomethyl)-3-(chloromethyl)cyclobutyl]carbamoyl]-3-chloro-phenyl]-5-[1-(5-amino-2-pyridyl)-3-(trifluoromethyl)pyrazol-4-yl]-1-methyl-imidazole-2-carboxamide]: 0.91 µM.
For the compound `Cn1c(-c2cn(-c3ccc(N)cn3)nc2C(F)(F)F)cnc1C(=O)Nc1ccc(C(=O)N2CCNC(C)(C)C2)c(Cl)c1` [Example Z57, 5-[1-(5-amino-2-pyridyl)-3-(trifluoromethyl)pyrazol-4-yl]-N-[3-chloro-4-(3,3-dimethylpiperazine-1-carbonyl)phenyl]-1-methyl-imidazole-2-carboxamide], the IC90 came to 1.29 µM.
Consider `Cn1c(-c2cn(-c3cc(N)c(N)cn3)nc2C(F)(F)F)cnc1C(=O)Nc1ccc(C(=O)N2CCN(C(=O)C3CCNCC3)CC2)c(Cl)c1` [Example Z87, N-[3-chloro-4-[4-(piperidine-4-carbonyl)piperazine-1-carbonyl]phenyl]-5-[1-(4,5-diamino-2-pyridyl)-3-(trifluoromethyl)pyrazol-4-yl]-1-methyl-imidazole-2-carboxamide], for which the IC90 came out at 0.54 µM.
Turning to `Cc1cc(N)cnc1-n1cc(-c2cnc(C(=O)Nc3ccc(C(=O)N4CCN(C(=O)C5CCNCC5)CC4)c(Cl)c3)n2C)c(C(F)(F)F)n1` [Example Z81, 5-[1-(5-amino-3-methyl-2-pyridyl)-3-(trifluoromethyl)pyrazol-4-yl]-N-[3-chloro-4-[4-(piperidine-4-carbonyl)piperazine-1-carbonyl]phenyl]-1-methyl-imidazole-2-carboxamide], the IC90 was 0.75 µM.
Take `Cn1c(-c2cn(-c3ncccc3C(F)(F)F)nc2C(F)(F)F)cnc1C(=O)Nc1ccc(C(=O)N2CCN(C(=O)C3CCNCC3)CC2)c(Cl)c1` [Example A10, N-[3-chloro-4-[4-(piperidine-4-carbonyl)piperazine-1-carbonyl]phenyl]-1-methyl-5-[3-(trifluoromethyl)-1-[3-(trifluoromethyl)-2-pyridyl]pyrazol-4-yl]imidazole-2-carboxamide]: the 90% effect concentration (IC90) is 0.83 µM.
For `CNc1ccc(-n2cc(-c3cnc(C(=O)Nc4ccc(C(=O)N5CCN(C(=O)C6CCNCC6)CC5)c(C)c4)n3C)c(C(F)(F)F)n2)nc1` [Example D6, 1-methyl-5-[1-[5-(methylamino)-2-pyridyl]-3-(trifluoromethyl)pyrazol-4-yl]-N-[3-methyl-4-[4-(piperidine-4-carbonyl)piperazine-1-carbonyl]phenyl]imidazole-2-carboxamide], the concentration for an effect of 90% (IC90) worked out at 0.37 µM.
Regarding `Cn1c(-c2cn(-c3ccc(N)cn3)nc2C(F)(F)F)cnc1C(=O)Nc1ccc(C(=O)N2CC3CNC3C2)c(Cl)c1` (stereo not shown) [Example Z59, 5-[1-(5-amino-2-pyridyl)-3-(trifluoromethyl)pyrazol-4-yl]-N-[3-chloro-4-(3,6-diazabicyclo[3.2.0]heptane-3-carbonyl)phenyl]-1-methyl-imidazole-2-carboxamide], the IC90 came to 1.31 µM.
Still for that read-out and setting: next, `Cn1c(-c2cn(-c3ccc(N)cn3)nc2C(F)(F)F)cnc1C(=O)Nc1ccc(C(=O)N[C@H]2C[C@@H](N)C2)c(Cl)c1` [Example Z11, N-[4-[cis-(3-aminocyclobutyl)carbamoyl]-3-chloro-phenyl]-5-[1-(5-amino-2-pyridyl)-3-(trifluoromethyl)pyrazol-4-yl]-1-methyl-imidazole-2-carboxamide]: 0.95 µM.
As to `Cn1c(-c2cn(-c3ccc(N)cn3)nc2C(F)(F)F)cnc1C(=O)Nc1ccc(C(=O)NC2CN(C(=O)[C@@H]3C[C@@H](O)CN3)CC2CO)c(Cl)c1` (stereo partly drawn) [Example Z27, 5-[1-(5-amino-2-pyridyl)-3-(trifluoromethyl)pyrazol-4-yl]-N-[3-chloro-4-[[1-[(2S,4R)-4-hydroxyprolyl]-4-methylol-pyrrolidin-3-yl]carbamoyl]phenyl]-1-methyl-imidazole-2-carboxamide], the IC90 amounted to 1.18 µM.
With `Cn1c(-c2cn(-c3ccc(Cl)cn3)nc2C(F)(F)F)cnc1C(=O)Nc1ccc(C(=O)N2CCN(C(=O)C3CCNCC3)CC2)c(Cl)c1` [Example A3, N-[3-chloro-4-[4-(piperidine-4-carbonyl)piperazine-1-carbonyl]phenyl]-5-[1-(5-chloro-2-pyridyl)-3-(trifluoromethyl)pyrazol-4-yl]-1-methyl-imidazole-2-carboxamide], the IC90 was 0.37 µM.
For the compound `Cn1c(-c2cn(-c3ccc(N)cn3)nc2C(F)(F)F)cnc1C(=O)Nc1ccc(C(=O)NCC2CCNCC2)c(Cl)c1` [Example Z3, 5-[1-(5-amino-2-pyridyl)-3-(trifluoromethyl)pyrazol-4-yl]-N-[3-chloro-4-(4-piperidylmethylcarbamoyl)phenyl]-1-methyl-imidazole-2-carboxamide], the IC90 amounted to 0.5 µM.
For `Cn1c(-c2cn(-c3ccc(N)cn3)nc2C(F)(F)F)cnc1C(=O)Nc1ccc(C(=O)N[C@@H]2COC3(C2)CN(C(=O)[C@@H]2C[C@@H](O)CN2)C3)c(Cl)c1` [Example Z41, 5-[1-(5-amino-2-pyridyl)-3-(trifluoromethyl)pyrazol-4-yl]-N-[3-chloro-4-[[(7S)-2-[(2S,4R)-4-hydroxyprolyl]-5-oxa-2-azaspiro[3.4]octan-7-yl]carbamoyl]phenyl]-1-methyl-imidazole-2-carboxamide], the IC90 worked out at 0.3 µM.
With `Cn1c(-c2cn(-c3ccc(N)cn3)nc2C(F)(F)F)cnc1C(=O)Nc1ccc(C(=O)N2CCN(C(=O)[C@@H]3COCCN3)CC2)c(Cl)c1` [Example C8, 5-[1-(5-amino-2-pyridyl)-3-(trifluoromethyl)pyrazol-4-yl]-N-[3-chloro-4-[4-[(3S)-morpholine-3-carbonyl]piperazine-1-carbonyl]phenyl]-1-methyl-imidazole-2-carboxamide], the 90% effect concentration (IC90) stood at 0.82 µM.
On to `Cn1c(-c2cn(-c3cc(F)ncc3N)nc2C(F)(F)F)cnc1C(=O)Nc1ccc(C(=O)N2CCN(C(=O)C3CCNCC3)CC2)c(Cl)c1` [Example Z83, 5-[1-(5-amino-2-fluoro-4-pyridyl)-3-(trifluoromethyl)pyrazol-4-yl]-N-[3-chloro-4-[4-(piperidine-4-carbonyl)piperazine-1-carbonyl]phenyl]-1-methyl-imidazole-2-carboxamide], for which the IC90 is 1.22 µM.
For `COc1ccnc(-n2cc(-c3cnc(C(=O)Nc4ccc(C(=O)N5CCN(C(=O)C6CCNCC6)CC5)c(Cl)c4)n3C)c(C(F)(F)F)n2)c1` [Example A12, N-[3-chloro-4-[4-(piperidine-4-carbonyl)piperazine-1-carbonyl]phenyl]-5-[1-(4-methoxy-2-pyridyl)-3-(trifluoromethyl)pyrazol-4-yl]-1-methyl-imidazole-2-carboxamide], the IC90 is 0.25 µM.
For the compound `COCCOc1cnc(-n2cc(-c3cnc(C(=O)Nc4ccc(C(=O)N5CCN(C(=O)C6CCNCC6)CC5)c(Cl)c4)n3C)c(C(F)(F)F)n2)nc1` [Example A6, N-[3-chloro-4-[4-(piperidine-4-carbonyl)piperazine-1-carbonyl]phenyl]-5-[1-[5-(2-methoxyethoxy)pyrimidin-2-yl]-3-(trifluoromethyl)pyrazol-4-yl]-1-methyl-imidazole-2-carboxamide], the IC90 turned out to be 0.54 µM.
`CNc1ccc(-n2cc(-c3cnc(C(=O)Nc4ccc(C(=O)N5CCN(C(=O)[C@@H]6C[C@@H](O)CN6)CC5)c(Cl)c4)n3C)c(C(F)(F)F)n2)nc1` [Example D7, N-[3-chloro-4-[4-[(2S,4R)-4-hydroxypyrrolidine-2-carbonyl]piperazine-1-carbonyl]phenyl]-1-methyl-5-[1-[5-(methylamino)-2-pyridyl]-3-(trifluoromethyl)pyrazol-4-yl]imidazole-2-carboxamide]: the IC90 was found to be 0.28 µM.

The experiment is the same for the next values; noted with them: Acinetobacter baumannii, ATCC17961, 16 h, read-out: ATCC 17961 IC90.
As for `Cn1c(-c2cn(-c3ccc(N)cn3)nc2C(F)(F)F)cnc1C(=O)Nc1ccc(C(=O)NCCN)c(Cl)c1` [Example Z17, N-[4-(2-aminoethylcarbamoyl)-3-chloro-phenyl]-5-[1-(5-amino-2-pyridyl)-3-(trifluoromethyl)pyrazol-4-yl]-1-methyl-imidazole-2-carboxamide], the IC90 was determined as 0.99 µM.
As to `CCNc1ccc(-n2cc(-c3cnc(C(=O)Nc4ccc(C(=O)N5CCN(C(=O)C6CCNCC6)CC5)c(Cl)c4)n3C)c(C(F)(F)F)n2)nc1` [Example K1, N-[3-chloro-4-[4-(piperidine-4-carbonyl)piperazine-1-carbonyl]phenyl]-5-[1-[5-(ethylamino)-2-pyridyl]-3-(trifluoromethyl)pyrazol-4-yl]-1-methyl-imidazole-2-carboxamide], the IC90 was 0.5 µM.
